Experimental data taken from PubChem BioAssay (NCI).
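Assay format: 96-well plates, 48-hour exposure. Definition used: TGI = concentration required for complete inhibition of growth.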

Key:
Assay in all cases: NCI tumour cell line growth inhibition, 48 h
NCI-H23 lung = test system: NCI-H23 lung
SF-539 CNS = test system: SF-539 CNS
LOX IMVI melanoma = test system: LOX IMVI melanoma
TK-10 renal = test system: TK-10 renal
786-0 renal = test system: 786-0 renal
U251 CNS = test system: U251 CNS
A498 renal = test system: A498 renal
SR leukemia = test system: SR leukemia
NCI-H460 lung = test system: NCI-H460 lung
PC-3 prostate = test system: PC-3 prostate
MOLT-4 leukemia = test system: MOLT-4 leukemia
HOP-62 NSCLC = test system: HOP-62 NSCLC
A549 NSCLC = test system: A549 NSCLC

Row | Compound | TGI (NCI-H23 lung) [µM] | TGI (SF-539 CNS) [µM] | TGI (LOX IMVI melanoma) [µM] | TGI (TK-10 renal) [µM] | TGI (786-0 renal) [µM] | TGI (U251 CNS) [µM] | TGI (A498 renal) [µM] | TGI (SR leukemia) [µM] | TGI (NCI-H460 lung) [µM] | TGI (PC-3 prostate) [µM] | TGI (MOLT-4 leukemia) [µM] | TGI (HOP-62 NSCLC) [µM] | TGI (A549 NSCLC) [µM]
1 | C(/C=C(\Nc1ccccc1)c1ccc2ccccc2c1)=Nc1ccccc1 | 6.63 | 4.1 | 5.4 | 4.47 | 8.9 | 8.66 | 25.8 | 2.49 | 11.9 | 11.8 | 2.62 | 7.05 | 18.4
2 | CC(C)C1OC(=O)C(Cc2ccccc2)N(C)C(=O)C(C(C)C)OC(=O)C(Cc2ccccc2)N(C)C(=O)C(C(C)C)OC(=O)C(Cc2ccccc2)N(C)C1=O (configuration not stated) | 2.62 | 3.47 | 2.1 | 2.12 | 2.5 | 1.77 | 6.53 | 4.06 | 2.44 | 1.91 | 2.33 | 2.19 | 1.87
3 | O=C(Cn1c(=O)oc2ccccc21)N(c1ccccc1)c1ccccc1 | > 100 | > 100 | > 100 | > 100 | > 100 | > 100 | > 100 | > 100 | > 100 | > 100 | > 100 | > 100 | 
4 | CC(C)=CC(=O)c1[nH]c2ccccc2c1CC(=O)NCCc1cnc[nH]1 | > 100 | > 100 | > 100 | > 100 | > 100 | > 100 | > 100 | > 100 | > 100 | > 100 | > 100 |  | > 100
5 | C=CCSC1=N/C(=C\c2ccc(C)cc2)C(=O)N1CC=C | > 100 | > 100 | 82.3 | > 100 | 58.4 | 57.1 | 51.8 | 29.4 | > 100 | 70 |  | > 100 | 65.4
6 | Cc1csc(NCc2ccc(Cl)cc2)n1 | > 100 | > 100 | > 100 | > 100 | > 100 | > 100 | > 100 | > 100 |  | > 100 | > 100 | > 100 | > 100
7 | CSC(SC)=C(C#N)C(=O)Nc1ccc(Cl)cc1 | > 100 | 67.7 | 62.1 | 72.6 | > 100 | > 100 | 90.4 | > 100 | > 100 | > 100 | 89.6 |  | > 100
8 | O=C1c2ccccc2CC12Cc1ccc3c(c1C2=O)CCCC3 (configuration not stated) |  | > 100 | > 100 | > 100 | > 100 | > 100 | > 100 | 6.56 | > 100 | > 100 | 12.5 | > 100 | > 100
9 | CC(NC(CC12CC3CC(CC(C3)C1)C2)C(N)=O)c1ccccc1 (configuration not stated) |  |  | 30.7 | > 100 |  | 26.1 | 31.5 | 41.3 | 36.6 | > 100 | 39.6 | > 100 | > 100
10 | Cc1cccc(NC(=S)NNC(=O)c2cc(-c3ccccc3)nc3ccccc23)c1 | 84.8 | 58.9 |  | > 100 | 85.1 | 89.9 | 47.6 | 41.1 | 85.9 | 83.3 | 84.3 | 99.3 | 70.7
11 | CCC(C)C(NC(=O)c1cccc2c(=O)c3ccccc3[nH]c12)C(=O)O (configuration not stated) | > 100 |  | > 100 | > 100 | > 100 | > 100 | > 100 | > 100 |  | > 100 | > 100 | > 100 | > 100
12 | CCN(CC)C(=O)N[C@@H](CC(C)C)C(=O)NC | > 100 |  | > 100 |  | > 100 | > 100 | > 100 | > 100 | > 100 | > 100 | > 100 | > 100 | > 100
13 | COc1ccc2nc(-c3ccc(N)cc3)sc2c1 | > 100 | > 100 |  | > 100 | > 100 | > 100 | > 100 | > 100 | > 100 | > 100 | > 100 | > 100 | > 100
14 | O=C(O)c1ccccc1Sc1ccc(C=C2NC(=S)N(c3ccccc3)C2=O)s1 | > 100 |  | > 100 | > 100 | 35.8 | > 100 | > 100 | > 100 | > 100 | > 100 | > 100 | > 100 | 
15 | C#C[C@]1(O)CC[C@H]2[C@@H]3CCC4=C/C(=N/OC(=O)c5cccc6cc7ccccc7nc56)CC[C@@H]4[C@H]3CC[C@@]21CC | > 100 | > 100 | > 100 |  | > 100 | > 100 | > 100 | > 100 | > 100 | > 100 | > 100 | > 100 | > 100
